According to patent publication US20030232986A1, “Inhibitors of caspases” (Vertex Pharmaceuticals Incorporated, priority 1998, published 2003):
Read-outs that look alike come from different tables or passages of the source. Where a SMILES comes first, the peptide text is derived from it. [ ]: non-standard residue; d: D form. The star is where a group is joined. Isovaleryl = CC(C)CC(=O)*; 4Abz = Nc1ccc(C(=O)O)cc1; Bz = O=C(c1ccccc1)*

How the values were obtained:
[1] = test system: Human whole blood, IL-1β production; experiment: Whole blood assay for IL-1β production; type: cell-based; details: LPS-stimulated whole blood, IL-1β by ELISA
Method: The whole blood assay is a simple method for measuring the production of IL-1β (or other cytokines) and the activity of potential inhibitors. The complexity of this assay system, with its full complement of lymphoid and inflammatory cell types, spectrum of plasma proteins and red blood cells is an ideal in vitro representation of human in vivo physiologic conditions.
Set incubator or water bath at 30° C. Aliquot 0.25 ml of blood into 1.5 ml eppendorf tubes. Note: be sure to invert the whole blood sample tubes after every two aliquots. Differences in replicates may result if the cells sediment and are not uniformly suspended. Use of a positive displacement pipette will also minimize differences between replicate aliquots.
Prepare drug dilutions in sterile pyrogen-free saline by serial dilution. A dilution series which brackets the apparent Ki for a test compound determined in an ICE inhibition assay is generally used for the primary compound screen. For extremely hydrophobic compounds, prepare compound dilutions in fresh plasma obtained from the same blood donor or in PBS-containing 5% DMSO to enhance solubility.
Add 25 μl test compound dilution or vehicle control and gently mix the sample. Then add 5.0 μl LPS solution (250 ng/ml stocked prepared fresh: 5.0 ng/ml final concentration LPS), and mix again. Incubate the tubes at […] in a water bath for 16-18 hr with occasional mixing. Alternatively, the tubes can be placed in a rotator set at 4 rpm for the same incubation period. This assay should be set up in duplicate or triplicate with the following controls: negative control—no LPS; positive control—no test inhibitor; vehicle control—the highest concentration of DMSO or compound solvent used in the experiment. Additional saline is added to all control tubes to normalize volumes for both control and experimental whole blood test samples.
After the incubation period, whole blood samples are centrifuged for 10 minutes at ^˜2000 rpm in the microfuge, plasma is transferred to a fresh microfuge tube and centrifuged at 1000×g to pellet residual platelets if necessary. Plasma samples may be stored frozen at −70° C. prior to assay for cytokine levels by ELISA.
R & D Systems (614 McKinley Place N.E. Minneapolis, Minn. 55413) Quantikine kits may be used for measurement of IL-1β and TNF-α. The assays are performed according to the manufacture's directions. IL-1β levels of ^˜1-5 ng/ml in positive controls among a range of individuals may be observed. A 1:200 dilution of plasma for all samples is usually sufficient for experiments for ELISA results to fall on the linear range of the ELISA standard curves. It may be necessary to optimize standard dilutions if you observe differences in the whole blood assay. Nerad, J. L. et al., J. Leukocyte Biol., 52, pp. 687-692 (1992).

[2] = target: T1, Caspase-1 (Homo sapiens, UniProt P29466); experiment: Caspase-1 enzyme inhibition (Ki); type: biochemical
T1 sequence (P29466 120-297 limits assumed): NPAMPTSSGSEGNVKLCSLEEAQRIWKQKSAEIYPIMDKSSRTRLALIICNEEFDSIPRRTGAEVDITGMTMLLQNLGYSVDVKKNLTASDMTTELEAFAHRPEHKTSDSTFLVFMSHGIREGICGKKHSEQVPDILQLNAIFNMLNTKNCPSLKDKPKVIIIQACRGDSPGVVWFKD
T1 sequence (P29466 317-404 limits assumed): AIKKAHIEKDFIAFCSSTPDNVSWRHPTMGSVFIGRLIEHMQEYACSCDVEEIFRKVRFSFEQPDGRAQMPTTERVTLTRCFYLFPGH
Method in brief: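 Ki obtained by fitting rate versus inhibitor concentration to the Morrison tight-binding equation for competitive inhibitors, with pNA release read at 405 nm at 37 °C. Substrate Suc-YVAD-pNA (80 μM final) added after 15 min enzyme–inhibitor preincubation in Tris pH 7.5 buffer with DTT and CHAPS.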

[3] = test system: Human Peripheral Blood Mononuclear Cells (PBMC), mature IL-1β; experiment: PBMC cell assay: IL-1β assay with human peripheral blood mononuclear cells; type: cell-based; details: LPS-stimulated human PBMC, mature IL-1β in supernatant by ELISA
From the text: IL-1β Assay with a Mixed Population of Human Peripheral Blood Mononuclear Cells (PBMC) or Enriched Adherent Mononuclear Cells
Processing of pre-IL-1β by ICE can be measured in cell culture using a variety of cell sources. Human PBMC obtained from healthy donors provides a mixed population of lymphocyte subtypes and mononuclear cells that produce a spectrum of interleukins and cytokines in response to many classes of physiological stimulators. Adherent mononuclear cells from PBMC provides an enriched source of normal monocytes for selective studies of cytokine production by activated cells.
An initial dilution series of test compound in DMSO or ethanol is prepared, with a subsequent dilution into RPMI-10% FBS media (containing 2 mM L-glutamine, 10 mM HEPES, 50 U and 50 ug/ml pen/strep) respectively to yield drugs at 4× the final test concentration containing 0.4% DMSO or 0.4% ethanol. The final concentration of DMSO is 0.1% for all drug dilutions. A concentration titration which brackets the apparent Ki for a test compound determined in an ICE inhibition assay is generally used for the primary compound screen.
Generally 5-6 compound dilutions are tested and the cellular component of the assay is performed in duplicate, with duplicate ELISA determinations on each cell culture supernatant.
Buffy coat cells isolated from one pint human blood (yielding 40-45 ml final volume plasma plus cells) are diluted with media to 80 ml and LeukoPREP separation tubes (Becton Dickinson) are each overlaid with 10 ml of cell suspension. After 15 min centrifugation at 1500-1800×g, the plasma/media layer is aspirated and then the mononuclear cell layer is collected with a Pasteur pipette and transferred to a 15 ml conical centrifuge tube (Corning). Media is added to bring the volume to 15 ml, gently mix the cells by inversion and centrifuge at 300×g for 15 min. The PBMC pellet is resuspended in a small volume of media, the cells are counted and adjusted to 6×10^6 cells/ml.
For the cellular assay, 1.0 ml of the cell suspension is added to each well of a 24-well flat bottom tissue culture plate (Corning), 0.5 ml test compound dilution and 0.5 ml LPS solution (Sigma #L-3012; 20 ng/ml solution prepared in complete RPMI media; final LPS concentration 5 ng/ml). The 0.5 ml additions of test compound and LPS are usually sufficient to mix the contents of the wells. Three control mixtures are run per experiment, with either LPS alone, solvent vehicle control, and/or additional media to adjust the final culture volume to 2.0 ml. The cell cultures are incubated for 16-18 hr at 37° C. in the presence of 5% CO2.
At the end of the incubation period, cells are harvested and transferred to 15 ml conical centrifuge tubes. After centrifugation for 10 min at 200×g, supernatants are harvested and transferred to 1.5 ml Eppendorf tubes. It may be noted that the cell pellet may be utilized for a biochemical evaluation of pre-IL-1β and/or mature IL-1β content in cytosol extracts by Western blotting or ELISA with pre-IL-1β specific antisera.
PBMC are isolated and prepared as described above. Media (1.0 ml) is first added to wells followed by 0.5 ml of the PBMC suspension. After a one hour incubation, plates are gently shaken and nonadherent cells aspirated from each well. Wells are then gently washed three times with 1.0 ml of media and final resuspended in 1.0 ml media. The enrichment for adherent cells generally yields 2.5-3.0×10^5 cells per well. The addition of test compounds, LPS, cell incubation conditions and processing of supernatants proceeds as described above.
Quantikine kits (R&D Systems) may be used for the measurement of mature IL-1β. Assays are performed according to the manufacturer's directions. Mature IL-1β levels of about 1-3 ng/ml in both PBMC and adherent mononuclear cell positive controls are observed. […]

[4] = substrate Suc-YVAD-pNA 80 μM, 37° C., pH 7.5

| IC50 [1] | Ki [2] | Ki [2, 4] | SMILES | IC50 [3] |
| --- | --- | --- | --- | --- |
| < 2.5 µM | 0.01 to 1 µM | 0.01 to 1 µM | CC(C)[C@H](NC(=O)c1ccccc1C(=O)c1ccccc1)C(=O)N1CCC[C@H]1C(=O)N[C@H](C=O)CC(=O)O [Example 5u] | 1 to 2 µM |
| < 2.5 µM | 0.01 to 1 µM | 0.01 to 1 µM | CC(C)[C@H](NC(=O)c1cnc2ccccc2n1)C(=O)N1CCC[C@H]1C(=O)N[C@H](C=O)CC(=O)O [Example 5w] | 0.5 to 1 µM |
| < 2.5 µM | < 0.01 µM | < 0.01 µM | CC(C)[C@H](NC(=O)c1ccccc1C(=O)N[C@@H](C)c1ccccc1)C(=O)N1CCC[C@H]1C(=O)N[C@H](C=O)CC(=O)O [Example 5x] | 0.5 to 1 µM |
| 2.5 to 7.5 µM | < 0.01 µM | < 0.01 µM | CCCCCCOc1ccc(C(=O)N[C@H](C(=O)N2CCC[C@H]2C(=O)N[C@H](C=O)CC(=O)O)C(C)C)cc1 [Example 5y] | 0.5 to 1 µM |
| > 7.5 µM | < 0.01 µM | < 0.01 µM | CCCCCCc1ccc(C(=O)N[C@H](C(=O)N2CCC[C@H]2C(=O)N[C@H](C=O)CC(=O)O)C(C)C)cc1 [Example 5z] | 0.5 to 1 µM |
| 2.5 to 7.5 µM |  | < 0.01 µM | C[C@H](NC(=O)c1cccc2ccccc12)C(=O)N1CCC[C@H]1C(=O)N[C@H](C=O)CC(=O)O [Example 7a] | > 2 µM |
| < 2.5 µM |  | 0.01 to 1 µM | C[C@H](NC(=O)c1ccccc1)C(=O)N1CCC[C@H]1C(=O)N[C@H](C=O)CC(=O)O [Example 7b] (Bz-Ala-Pro-Asp-aldehyde) | 0.5 to 1 µM |
| > 7.5 µM |  | 0.01 to 1 µM | CC(=O)Nc1ccc(C(=O)N[C@@H](C)C(=O)N2CCC[C@H]2C(=O)N[C@H](C=O)CC(=O)O)cc1 [Example 7e] (Ac-[4Abz]APD-aldehyde) | > 2 µM |
| 2.5 to 7.5 µM |  | < 0.01 µM | C[C@H](NC(=O)c1ccc(N(C)C)c2ccccc12)C(=O)N1CCC[C@H]1C(=O)N[C@H](C=O)CC(=O)O [Example 7g] | < 0.5 µM |
| < 2.5 µM |  | 0.01 to 1 µM | C[C@H](NC(=O)c1ccc(Cl)c(N)c1)C(=O)N1CCC[C@H]1C(=O)N[C@H](C=O)CC(=O)O [Example 7h] | 0.5 to 1 µM |
| < 2.5 µM |  | 0.01 to 1 µM | COc1cc(C(=O)N[C@@H](C)C(=O)N2CCC[C@H]2C(=O)N[C@H](C=O)CC(=O)O)cc(OC)c1OC [Example 7k] | 0.5 to 1 µM |
| < 2.5 µM |  | 0.01 to 1 µM | COc1cc(C(=O)N[C@@H](C)C(=O)N2CCC[C@H]2C(=O)N[C@H](C=O)CC(=O)O)ccc1N [Example 7l] | 0.5 to 1 µM |
| 2.5 to 7.5 µM |  | 0.01 to 1 µM | COc1ccc(C(=O)N[C@@H](C)C(=O)N2CCC[C@H]2C(=O)N[C@H](C=O)CC(=O)O)cc1F [Example 7m] | 0.5 to 1 µM |
| < 2.5 µM |  | 0.01 to 1 µM | C[C@H](NC(=O)c1cccc(N(C)C)c1)C(=O)N1CCC[C@H]1C(=O)N[C@H](C=O)CC(=O)O [Example 7n] | 0.5 to 1 µM |
| < 2.5 µM |  | < 0.01 µM | COc1cc(C(=O)N[C@@H](C)C(=O)N2CCC[C@H]2C(=O)N[C@H](C=O)CC(=O)O)cc(Cl)c1O [Example 7o] | < 0.5 µM |
| 2.5 to 7.5 µM |  | < 0.01 µM | COc1ccc(C(=O)N[C@@H](C)C(=O)N2CCC[C@H]2C(=O)N[C@H](C=O)CC(=O)O)cc1C [Example 7p] | > 2 µM |
| < 2.5 µM |  | 0.01 to 1 µM | C[C@H](NC(=O)c1ccc2c(c1)OCO2)C(=O)N1CCC[C@H]1C(=O)N[C@H](C=O)CC(=O)O [Example 7q] | > 2 µM |
| 2.5 to 7.5 µM |  | 0.01 to 1 µM | C[C@H](NC(=O)c1ccc(N(C)C)cc1)C(=O)N1CCC[C@H]1C(=O)N[C@H](C=O)CC(=O)O [Example 7s] | 0.5 to 1 µM |
| 2.5 to 7.5 µM |  | 0.01 to 1 µM | Cc1cc(C(=O)N[C@@H](C)C(=O)N2CCC[C@H]2C(=O)N[C@H](C=O)CC(=O)O)ccc1N [Example 7t] | > 2 µM |
| 2.5 to 7.5 µM |  | 0.01 to 1 µM | C[C@H](NC(=O)c1ccc(C(N)=O)cc1)C(=O)N1CCC[C@H]1C(=O)N[C@H](C=O)CC(=O)O [Example 7u] | > 2 µM |
| < 2.5 µM |  | 0.01 to 1 µM | CC(C)CC(=O)Nc1ccc(C(=O)N[C@@H](C)C(=O)N2CCC[C@H]2C(=O)N[C@H](C=O)CC(=O)O)cc1 [Example 7v] ({Isovaleryl-4Abz}-Ala-Pro-Asp-aldehyde) | > 2 µM |
| < 2.5 µM |  | < 0.01 µM | Cc1cc(C(=O)N[C@@H](C)C(=O)N2CCC[C@H]2C(=O)N[C@H](C=O)CC(=O)O)cc(Cl)c1N [Example 7w] | 1 to 2 µM |
| > 7.5 µM |  | 0.01 to 1 µM | C[C@H](NC(=O)c1ccc(NS(C)(=O)=O)cc1)C(=O)N1CCC[C@H]1C(=O)N[C@H](C=O)CC(=O)O [Example 7x] | > 2 µM |
| > 7.5 µM |  | 0.01 to 1 µM | C[C@H](NC(=O)c1ccc(N)c(OC(F)(F)F)c1)C(=O)N1CCC[C@H]1C(=O)N[C@H](C=O)CC(=O)O [Example 7y] | > 2 µM |
